Test system: antibodies in sera of individuals which have been and/or are infected by SARS-CoV (SARS-green, SARS-yellow, 1a, 1b, 2, 6, 37, 62, London)
Assay type: binding, human

| Sequence | recognition by sera of SARS-CoV infected individuals, looped/cyclic form | recognition by sera of SARS-CoV infected individuals, linear form |
| --- | --- | --- |
| AKNLNESLIDLQELG [SEQ ID NO:1186] | recognized in looped/cyclic form | – |
| AKTSVDCNMYICGDS [SEQ ID NO:742] | – | recognized in linear form |
| ALNTLVKQLSSNFGA [SEQ ID NO:968] | recognized in looped/cyclic form | – |
| ALVSGTATAGWTFGA [SEQ ID NO:886] | – | recognized in linear form |
| AQALNTLVKQLSSNF [SEQ ID NO:966] | recognized in looped/cyclic form | – |
| ATAGWTFGAGAALQI [SEQ ID NO:892] | – | recognized in linear form |
| CNMYICGDSTECANL [SEQ ID NO:748] | – | recognized in linear form |
| CTPPALNCYWPLNDY [SEQ ID NO:495] | recognized in looped/cyclic form | – |
| DCNMYICGDSTECAN [SEQ ID NO:747] | – | recognized in linear form |
| DKVEAEVQIDRLITG [SEQ ID NO:995] | recognized in looped/cyclic form | – |
| DKYFKNHTSPDVDLG [SEQ ID NO:1149] | recognized in looped/cyclic form | – |
| DPLQPELDSFKEELD [SEQ ID NO:1137] | recognized in looped/cyclic form | – |
| DRLNEVAKNLNESLI [SEQ ID NO:1180] | recognized in looped/cyclic form | – |
| DSFKEELDKYFKNHT [SEQ ID NO:1144] | recognized in looped/cyclic form | – |
| DVVNQNAQALNTLVK [SEQ ID NO:960] | recognized in looped/cyclic form | – |
| ELDKYFKNHTSPDVD [SEQ ID NO:1147] | recognized in looped/cyclic form | – |
| ELDSFKEELDKYFKN [SEQ ID NO:1142] | recognized in looped/cyclic form | – |
| ESLTTTSTALGKLQD [SEQ ID NO:946] | recognized in looped/cyclic form | – |
| EVAKNLNESLIDLQE [SEQ ID NO:1184] | recognized in looped/cyclic form | – |
| EVMPVSMAKTSVDCN [SEQ ID NO:735] | recognized in looped/cyclic form | – |
| FIAGLIAIVMVTILL [SEQ ID NO:1216] | recognized in looped/cyclic form | – |

| Sequence | recognition by sera of SARS-CoV infected individuals, looped/cyclic form | recognition by sera of SARS-CoV infected individuals, linear form |
| --- | --- | --- |
| FIFLLFLTLTSGSDL [SEQ ID NO:41] | recognized in looped/cyclic form | – |
| FKNHTSPDVDLGDIS [SEQ ID NO:1152] | recognized in looped/cyclic form | – |
| FLLFLTLTSGSDLDR [SEQ ID NO:43] | recognized in looped/cyclic form | – |
| FLTLTSGSDLDRCTT [SEQ ID NO:46] | recognized in looped/cyclic form | – |
| FNGLTVLPPLLTDDM [SEQ ID NO:865] | recognized in looped/cyclic form | – |
| FSPDGKPCTPPALNC [SEQ ID NO:488] | – | recognized in linear form |
| GFIAGLIAIVMVTIL [SEQ ID NO:1215] | recognized in looped/cyclic form | – |
| GSDLDRCTTFDDVQA [SEQ ID NO:52] | recognized in looped/cyclic form | – |
| GTATAGWTFGAGAAL [SEQ ID NO:890] | – | recognized in linear form |
| GVYYPDEIFRSDTLY [SEQ ID NO:78] | recognized in looped/cyclic form | – |
| HTSPDVDLGDISGIN [SEQ ID NO:1155] | recognized in looped/cyclic form | – |
| HTSSMRGVYYPDEIF [SEQ ID NO:72] | recognized in looped/cyclic form | – |
| ICGDSTECANLLLQY [SEQ ID NO:752] | – | recognized in linear form |
| IFLLFLTLTSGSDLD [SEQ ID NO:42] | recognized in looped/cyclic form | – |
| IINNTVYDPLQPELD [SEQ ID NO:1130] | recognized in looped/cyclic form | – |
| INNTVYDPLQPELDS [SEQ ID NO:1131] | recognized in looped/cyclic form | – |
| IQESLTTTSTALGKL [SEQ ID NO:944] | recognized in looped/cyclic form | – |
| ITTEVMPVSMAKTSV [SEQ ID NO:732] | recognized in looped/cyclic form | – |
| KFNGLTVLPPLLTDD [SEQ ID NO:864] | recognized in looped/cyclic form | – |
| KNHTSPDVDLGDISG [SEQ ID NO:1153] | recognized in looped/cyclic form | – |
| KNLNESLIDLQELGK [SEQ ID NO:1187] | recognized in looped/cyclic form | – |

| Sequence | recognition by sera of SARS-CoV infected individuals, looped/cyclic form | recognition by sera of SARS-CoV infected individuals, linear form |
| --- | --- | --- |
| KTSVDCNMYICGDST [SEQ ID NO:743] | – | recognized in linear form |
| KYFKNHTSPDVDLGD [SEQ ID NO:1150] | recognized in looped/cyclic form | – |
| LDKVEAEVQIDRLIT [SEQ ID NO:994] | recognized in looped/cyclic form | – |
| LDKYFKNHTSPDVDL [SEQ ID NO:1148] | recognized in looped/cyclic form | – |
| LDSFKEELDKYFKNH [SEQ ID NO:1143] | recognized in looped/cyclic form | – |
| LFLTLTSGSDLDRCT [SEQ ID NO:45] | recognized in looped/cyclic form | – |
| LGFIAGLIAIVMVTI [SEQ ID NO:1214] | recognized in looped/cyclic form | – |
| LLFLTLTSGSDLDRC [SEQ ID NO:44] | recognized in looped/cyclic form | – |
| LNEVAKNLNESLIDL [SEQ ID NO:1182] | recognized in looped/cyclic form | – |
| LQDVVNQNAQALNTL [SEQ ID NO:958] | recognized in looped/cyclic form | – |
| LQPELDSFKEELDKY [SEQ ID NO:1139] | recognized in looped/cyclic form | – |
| LTLTSGSDLDRCTTF [SEQ ID NO:47] | recognized in looped/cyclic form | – |
| LTSGSDLDRCTTFDD [SEQ ID NO:49] | recognized in looped/cyclic form | – |
| LTTTSTALGKLQDVV [SEQ ID NO:948] | recognized in looped/cyclic form | – |
| LVSGTATAGWTFGAG [SEQ ID NO:887] | – | recognized in linear form |
| MFIFLLFLTLTSGSD [SEQ ID NO:40] | recognized in looped/cyclic form | – |
| MRGVYYPDEIFRSDT [SEQ ID NO:76] | recognized in looped/cyclic form | – |
| MYICGDSTECANLLL [SEQ ID NO:750] | – | recognized in linear form |
| NAQALNTLVKQLSSN [SEQ ID NO:965] | recognized in looped/cyclic form | – |
| NEVAKNLNESLIDLQ [SEQ ID NO:1183] | recognized in looped/cyclic form | – |
| NGLTVLPPLLTDDMI [SEQ ID NO:866] | recognized in looped/cyclic form | – |

| Sequence | recognition by sera of SARS-CoV infected individuals, looped/cyclic form | recognition by sera of SARS-CoV infected individuals, linear form |
| --- | --- | --- |
| NHTSPDVDLGDISGI [SEQ ID NO:1154] | recognized in looped/cyclic form | – |
| NLNESLIDLQELGKY [SEQ ID NO:1188] | recognized in looped/cyclic form | – |
| NMYICGDSTECANLL [SEQ ID NO:749] | – | recognized in linear form |
| NNTVYDPLQPELDSF [SEQ ID NO:1132] | recognized in looped/cyclic form | – |
| NQNAQALNTLVKQLS [SEQ ID NO:963] | recognized in looped/cyclic form | – |
| NTVYDPLQPELDSFK [SEQ ID NO:1133] | recognized in looped/cyclic form | – |
| NVPFSPDGKPCTPPA [SEQ ID NO:485] | – | recognized in linear form |
| PCTPPALNCYWPLND [SEQ ID NO:494] | recognized in looped/cyclic form | – |
| PELDSFKEELDKYFK [SEQ ID NO:1141] | recognized in looped/cyclic form | – |
| PFSPDGKPCTPPALN [SEQ ID NO:487] | – | recognized in linear form |
| PLQPELDSFKEELDK [SEQ ID NO:1138] | recognized in looped/cyclic form | – |
| PPALNCYWPLNDYGF [SEQ ID NO:497] | recognized in looped/cyclic form | – |
| QALNTLVKQLSSNFG [SEQ ID NO:967] | recognized in looped/cyclic form | – |
| QDVVNQNAQALNTLV [SEQ ID NO:959] | recognized in looped/cyclic form | – |
| QESLTTTSTALGKLQ [SEQ ID NO:945] | recognized in looped/cyclic form | – |
| QHTSSMRGVYYPDEI [SEQ ID NO:71] | recognized in looped/cyclic form | – |
| QIQESLTTTSTALGK [SEQ ID NO:943] | recognized in looped/cyclic form | – |
| QKFNGLTVLPPLLTD [SEQ ID NO:863] | recognized in looped/cyclic form | – |
| QNAQALNTLVKQLSS [SEQ ID NO:964] | recognized in looped/cyclic form | – |
